{"source": "patent US9180164B2", "about": "“Compounds and methods of modulating angiogenesis” (THE CLEVELAND CLINIC FOUNDATION, priority 2011, dated 2015)", "key": {"[1]": {"system": "endothelial cells", "test": "VEGF-induced endothelial cell migration with inhibiting peptide", "format": "cell-based", "description": "To examine the effect of the inhibiting peptide on endothelial cell migration, VEGF-induced migratory activity of endothelial cells was measured after administration of a control peptide (YGRKKRRQRRR G DTANNPL FKEATSTFT-COOH) (SEQ ID NO: 43) or with equal amount of beta-3 integrin cytoplasmic domain inhibitory peptide (YGRKKRRQRRR G DTANNPLYpKEATSTFT-COOH) (SEQ ID NO: 44) to the endothelial cells."}, "[2]": {"system": "HUVECs", "test": "Cell adhesion assay with inhibiting peptide", "format": "cell-based, Human", "conditions": "HUVECs on integrin ligand coated plates", "description": "Cells were washed twice with sterile phosphate buffered saline (PBS) and re-suspended in serum-free DMEN. The cell suspensions were added to integrin ligand-coated wells and placed in a humidified incubator for 45 min. The wells were gently washed three times with DMEM and photographs were taken. The numbers of attached and spread cells per field were counted.\nTo examine endothelial cell adhesion to various ECM proteins following inhibition of expression of specific integrin subunits, HUVECs were plated on various integrin ligand coated plates and ability of EC to adhere to the distinct extracellular matrix components were tested after administration of a control peptide (YGRKKRRQRRR G DTANNPL FKEATSTFT-COOH) (SEQ ID NO: 43) or with equal amount of beta-3 integrin cytoplasmic domain inhibitory peptide (YGRKKRRQRRR G DTANNPLYpKEATSTFT-COOH) (SEQ ID NO: 44)."}, "[3]": {"system": "neovascularization", "test": "Matrigel plug assay, hemoglobin extracted from Matrigel", "format": "in vivo, mice", "conditions": "50 mM peptide in Matrigel with VEGF (60 ng/mL), subcutaneous, 7 days", "protocol": "Matrigel plug assays were performed in age- and sex-matched C57/B16 background mice. […] After 7 days, the animals were euthanized and dissected. Matrigel plugs were removed and digested using 5 mL Drabkin reagent and neovascularization was assessed using a hemoglobin assay as per the manufacturer's protocol (FIG. 16).\nAngiogenic response was measured based on the amount of hemoglobin extracted from Matrigel."}}}
{"sequence": "YGRKKRRQRRR G DTANNPL Yp KEATSTFT-COOH", "values": [{"measurement": "VEGF-induced endothelial cell migration compared to the control peptide", "setting": "[1]", "value": "prevented endothelial cell migration"}, {"measurement": "capillary formation compared to the control peptide", "setting": "[1]", "value": "inhibited capillary formation"}, {"measurement": "effect on cell adhesion compared to a control peptide", "setting": "[2]", "value": "no effect on cell adhesion"}, {"measurement": "hemoglobin concentration lower in Matrigel plugs compared to control peptide", "setting": "[3]", "value": "at least 3.5 fold"}]}
